Experiment [1] is described as follows: Inhibition of pig kidney cytosolic leucine aminopeptidase. Also on record: species or system Sus scrofa.
Experiment [2] is described as follows: Inhibition of pig kidney microsomal leucine aminopeptidase. Also on record: species or system Sus scrofa.
The species named for a further experiment is Sus scrofa. Briefly: Inhibition of pig kidney microsomal leucine aminopeptidase at 10 to 20 uM.

Molecules are shown by their SMILES. Values joined by “and” are separate entries in the source; they are usually repeats but may differ in a detail not shown here. Equal entries are not always repeated. Active and inactive are the calls of the source. No cut-off for these calls is given here.

As for `NCc1ccc(CNC(CP(=O)(O)C(N)CCc2ccccc2)C(=O)O)cc1` (stereo in doubt; 8,F1), the Ki – broadly, a dissociation constant, usually derived from enzyme kinetics or from competition with a known ligand – came out at 2.78 µM in experiment [1] and 19.9 µM in experiment [2].

Regarding `NC(CCc1ccccc1)P(=O)(O)CC(Nc1ccccc1)C(=O)O` (stereo unspecified), the Ki in experiment [1] is 0.57 µM and 0.45 µM. For the same molecule, the result in the experiment filed under Sus scrofa was inactive.

`NC(CCc1ccccc1)P(=O)(O)CC(Nc1ccc(CO)cc1)C(=O)O` (stereo unspecified): the Ki in experiment [1] is 10.3 µM and 6.98 µM; in experiment [2] it was 0.9 µM and 1.13 µM.

As to `NC(CCc1ccccc1)P(=O)(O)CC(NCc1ccc(CO)cc1)C(=O)O` (stereo unspecified), in experiment [1], the inhibition constant (Ki) was 4.21 µM and 1.42 µM. For the same molecule, the result in the experiment filed under Sus scrofa was inactive.

In experiment [1], `NC(CCc1ccccc1)P(=O)(O)CC(NCc1ccccc1)C(=O)O` (stereo in doubt; 6,F1) [listing 1 of 2 here] gave a Ki of 10.1 µM. This lies in the double-digit micromolar range.

For `NCc1ccc(CNC(CP(=O)(O)C(N)CCc2ccccc2)C(=O)O)cc1` (stereo in doubt; 8,F2), the Ki in experiment [1] amounted to 2.62 µM; in experiment [2], 2.66 µM.

Take `NC(CCc1ccccc1)P(=O)(O)CC(NCc1ccccc1)C(=O)O` (stereo in doubt; 6): the results for the Ki in experiment [1] and in experiment [2] were 12.4 µM and 1500 µM, respectively.

`NCc1ccc(NC(CP(=O)(O)C(N)CCc2ccccc2)C(=O)O)cc1` (stereo unspecified): the figures for the Ki in experiment [1] and in experiment [2] were 4.46 µM and 0.56 µM, respectively.

As to `NC(CCc1ccccc1)P(=O)(O)CC(NCc1ccccc1)C(=O)O` (stereo in doubt; 6,F1) [listing 2 of 2 here], the result in the experiment filed under Sus scrofa was inactive.
